From ChEMBL document CHEMBL3860058, “Sterol-dependent membrane association of the marine sponge-derived bicyclic peptide Theonellamide A as examined by 1H NMR” (Bioorg Med Chem, 2016)
The source made the active and inactive calls. The rule behind the calls is not given here.

Assays:
[1] = Diffusion coefficient of the compound D2O at 11 mM and 25 degC by 1H NMR spectroscopy; assay type: physicochemical; conditions: 11000 µM
[2] = Aqueous diffusion coefficient of compound in 98:2 ratio of D2O/H2O solvent system at 25 degC by 1H NMR DOSY spectroscopy; assay type: physicochemical; conditions: buffer
[3] = Antifungal activity against wild-type Candida albicans ATCC 32354 assessed as growth inhibition using alamar blue staining measured after 14 to 16 hrs by microdilution assay; assay type: functional
[4] = Antifungal activity against Trichophyton assessed as growth inhibition using alamar blue staining measured after 14 to 16 hrs by microdilution assay; assay type: functional
[5] = tested on: Aspergillus; assay: Antifungal activity against Aspergillus assessed as growth inhibition using alamar blue staining measured after 14 to 16 hrs by microdilution assay; assay type: functional
[6] = Cytotoxicity against mouse P388 cells; assay type: functional, cell-based
[7] = target: Lipid bilayer; assay: Binding affinity to POPC large unilamellar vesicle in pH 7.4 phosphate buffer by SPR analysis
[8] = Binding affinity to cholesterol containing DMPC-d54/DHPC-d22 bicelles assessed as broadening of aromatic/olefinic signals at 6.5 to 7.6 ppm measured at 200 uM by 1H NMR spectroscopy
[9] = Binding affinity to cholesterol containing DMPC-d54/DHPC-d22 bicelles assessed as […] measured at ratio of 1:10 Mn2+ to compound by 1H NMR spectroscopy relative to control
[10] = Binding affinity to cholesterol containing DMPC-d54/DHPC-d22 bicelles assessed as […] measured at ratio of 4:10 Mn2+ to compound by 1H NMR spectroscopy relative to control
[11] = Binding affinity to DMPC-d54/DHPC-d22 bicelles assessed as […] measured at ratio of 4:10 Mn2+ to compound by 1H NMR spectroscopy relative to control
[12] = Induction of membrane damage in POPC/cholesterol GUV model assessed as membrane curvature at 20 uM after 13 to 55 mins by TNM-DCCH staining based confocal microscopic analysis
[13] = Binding affinity to cholesterol containing POPC large unilamellar vescicle in pH 7.4 phosphate buffer by SPR analysis

D [1] [×10⁻¹⁰ m2/s]	D [2] [×10⁻¹⁰ m2/s]	Compound	IC50 [3] [nM]	IC50 [4] [nM]	IC50 [5] [nM]	IC50 [6] [nM]	Kd [7] [nM]	Activity [8]	Ratio [9]	Ratio [10]	Ratio [11]	Activity [12]	Kd [13] [nM]
2.64	2.63	OC[C@H]1O[C@@H]2O[C@H]3[C@H](O)[C@@H](O)[C@@H](O[C@H]4[C@H](O)[C@@H](O)[C@@H](O[C@H]5[C@H](O)[C@@H](O)[C@@H](O[C@H]6[C@H](O)[C@@H](O)[C@@H](O[C@H]7[C@H](O)[C@@H](O)[C@@H](O[C@H]8[C@H](O)[C@@H](O)[C@@H](O[C@H]1[C@H](O)[C@H]2O)O[C@@H]8CO)O[C@@H]7CO)O[C@@H]6CO)O[C@@H]5CO)O[C@@H]4CO)O[C@@H]3CO [BETADEX]	–	–	–	–	–	–	–	–	–	–	–
–	–	CC(/C=C/c1ccccc1)=C\[C@H](O)[C@@H]1CC(=O)N[C@@H](CO)C(=O)N[C@@H]2Cn3cc([n+]([C@@H]4O[C@H](CO)[C@H](O)[C@H](O)[C@H]4O)c3)C[C@H](NC(=O)C[C@H](O)C[C@@H](C(=O)[O-])NC(=O)[C@@H](O)CNC(=O)[C@H]([C@@H](C)c3ccc(Br)cc3)NC(=O)[C@H]([C@@H](O)C(N)=O)NC(=O)[C@H](CC(N)=O)NC2=O)C(=O)N[C@@H]([C@H](C)O)C(=O)N[C@@H](CO)C(=O)N[C@@H](Cc2ccccc2)C(=O)N1	2000 to 7000	2000 to 7000	2000 to 7000	500 to 2800	420000	Active	0.85	0.54 to 0.61	0.36 to 0.46	Active	9200
–	–	CC(/C=C/c1ccc(Br)cc1)=C\[C@H](O)[C@@H]1CC(=O)N[C@@H](CO)C(=O)N[C@@H]2Cn3cc([n+]([C@H]4OC[C@H](O)[C@H](O)[C@H]4O)c3)C[C@H](NC(=O)C[C@H](O)C[C@@H](C(=O)[O-])NC(=O)CCNC(=O)[C@H](Cc3ccc(Br)cc3)NC(=O)[C@H]([C@@H](O)C(N)=O)NC(=O)[C@H](CC(N)=O)NC2=O)C(=O)N[C@@H]([C@H](C)O)C(=O)N[C@@H](CO)C(=O)N[C@@H](Cc2ccccc2)C(=O)N1	2000 to 7000	2000 to 7000	2000 to 7000	500 to 2800	–	–	–	–	–	–	–
–	–	CC(/C=C/c1ccc(Br)cc1)=C\[C@H](O)[C@@H]1CC(=O)N[C@@H](CO)C(=O)N[C@@H]2C[n+]3c[nH]c(c3)C[C@H](NC(=O)C[C@H](O)C[C@@H](C(=O)[O-])NC(=O)[C@@H](O)CNC(=O)[C@H]([C@@H](C)c3ccc(Br)cc3)NC(=O)[C@H]([C@@H](O)C(N)=O)NC(=O)[C@H](CC(N)=O)NC2=O)C(=O)N[C@@H]([C@H](C)O)C(=O)N[C@@H](CO)C(=O)N[C@@H](Cc2ccccc2)C(=O)N1	2000 to 7000	2000 to 7000	2000 to 7000	500 to 2800	–	–	–	–	–	–	–
–	–	CC(/C=C/c1ccc(Br)cc1)=C\[C@H](O)[C@@H]1CC(=O)N[C@@H](CO)C(=O)N[C@@H]2C[n+]3c[nH]c(c3)C[C@H](NC(=O)C[C@H](O)C[C@@H](C(=O)[O-])NC(=O)CCNC(=O)[C@H](Cc3ccc(Br)cc3)NC(=O)[C@H]([C@@H](O)C(N)=O)NC(=O)[C@H](CC(N)=O)NC2=O)C(=O)N[C@@H]([C@H](C)O)C(=O)N[C@@H](CO)C(=O)N[C@@H](Cc2ccccc2)C(=O)N1	2000 to 7000	2000 to 7000	2000 to 7000	500 to 2800	–	–	–	–	–	–	–
–	–	CC(/C=C/c1ccc(Br)cc1)=C\[C@H](O)[C@@H]1CC(=O)N[C@@H](CO)C(=O)N[C@@H]2C[n+]3c[nH]c(c3)C[C@H](NC(=O)C[C@H](O)C[C@@H](C(=O)[O-])NC(=O)CCNC(=O)[C@H](Cc3ccccc3)NC(=O)[C@H]([C@@H](O)C(N)=O)NC(=O)[C@H](CC(N)=O)NC2=O)C(=O)N[C@@H]([C@H](C)O)C(=O)N[C@@H](CO)C(=O)N[C@@H](Cc2ccccc2)C(=O)N1	2000 to 7000	2000 to 7000	2000 to 7000	500 to 2800	–	–	–	–	–	–	–
–	–	CC(/C=C/c1ccc(Br)cc1)=C\[C@H](O)[C@@H]1CC(=O)N[C@@H](CO)C(=O)N[C@@H]2Cn3cc([n+]([C@@H]4O[C@H](CO)[C@H](O)[C@H](O)[C@H]4O)c3)C[C@H](NC(=O)C[C@H](O)C[C@@H](C(=O)[O-])NC(=O)CCNC(=O)[C@H](Cc3ccc(Br)cc3)NC(=O)[C@H]([C@@H](O)C(N)=O)NC(=O)[C@H](CC(N)=O)NC2=O)C(=O)N[C@@H]([C@H](C)O)C(=O)N[C@@H](CO)C(=O)N[C@@H](Cc2ccccc2)C(=O)N1	2000 to 7000	2000 to 7000	2000 to 7000	500 to 2800	–	–	–	–	–	–	–
